From the RepoRT retention time repository

Assay: RP, Waters ACQUITY UPLC HSS T3, 100 × 2.1 mm, 1.8 µm, 0.3 mL/min, estimated dead time 0.73 min; A: water + 0.1% formic acid, pH 3; B: methanol + 0.1% formic acid, pH 3; gradient (min/%B) 0/1 1/15 4/35 7/95 9/95 10/1 14/95
Conditions: stereoisomer not certain

| Structure (SMILES) | LC retention time [min] |
| --- | --- |
| NC(Cc1ccccc1)C(=O)O (configuration not stated) [phenylalanine] | 4.45 |
| CSCCC(N)C(=O)O (configuration not stated) [methionine] | 1.21 |
| O=c1ccn(C2OC(CO)C(O)C2O)c(=O)[nH]1 (configuration not stated) [uridine] | 2.2 |
| CC12CCC3c4ccc(O)cc4CCC3C1CCC2O (configuration not stated) [estradiol] | 19.7 |
| O=C1CC(C(=O)O)NC(=O)N1 [L-dihydroorotic acid] | 1.07 |
| O=[N+]([O-])c1ccccc1O [2-nitrophenol] | 8.45 |
| NC(Cc1c[nH]c2ccccc12)C(=O)O (configuration not stated) [tryptophan] | 5.45 |
| CC(C)CC(N)C(=O)O (configuration not stated) [leucine] | 2.53 |
| Cc1cc2nc3c(=O)[nH]c(=O)nc-3n(CC(O)C(O)C(O)CO)c2cc1C (configuration not stated) [riboflavin] | 7.22 |
| CC(CCC(=O)NCC(=O)O)C1CCC2C3C(O)CC4CC(O)CCC4(C)C3CC(O)C12C (configuration not stated) [sodium glycocholate hydrate] | 11 |
| CC(=O)C1CCC2C3CCC4=CC(=O)CCC4(C)C3CCC12C (configuration not stated) [progesterone] | 10.1 |
| O=C(O)CC(O)(CC(=O)O)C(=O)O [citric acid monohydrate] | 8.41 |
